Experimental findings from ChEMBL document CHEMBL3046401, “Synthesis, X-ray structure and antiproliferative activity of 3-benzylthio-4-propargylselenoquinoline” (2010) are described below.

In brackets after ≈: the same amount, converted by molar mass. Some results are limits rather than exact numbers.

Holding throughout (type): functional
Common to all, as to conditions: read-out: ID50 (the source's name)

Test [1] relates to A549. The test can be described thus: Antiproliferative activity against Homo sapiens (human) A549 cells by SRB assay. Background: In SRB staining, fixed cells bind dye roughly in proportion to their protein.
Test [2] concerns T47D. The test can be described thus: Antiproliferative activity against Homo sapiens (human) T47D cells by SRB assay.
A short description of test [3]: Antiproliferative activity against Homo sapiens (human) HCV29T cells by SRB assay.
Test [4] in a line: Antiproliferative activity against Homo sapiens (human) SW707 cells by SRB assay.

Regarding `C#CC[Se]c1c(SCc2ccccc2)cnc2ccccc12` [3-BENZYLTHIO-4-PROPARGYLSELENOQUINOLINE], the IC50 in test [1], in test [2], in test [3] and in test [4] was greater than 100 µg/mL in each case.

Consider `C#CC[Se]c1c(SC)cnc2ccccc12` [3-METHYLTHIO-4-PROPARGYLSELENOQUINOLINE], for which the figures for the IC50 in test [2], in test [3] and in test [4] were 2.5 µg/mL (≈ 8.55 µM), 1.8 µg/mL (≈ 6.16 µM) and 0.6 µg/mL (≈ 2.05 µM), respectively.

Take `C#CCSc1c(SC)cnc2ccccc12` [3-METHYLTHIO-4-PROPARGYLTHIOQUINOLINE]: the IC50 is 6.8 µg/mL (≈ 27.7 µM) in test [1], 18.4 µg/mL (≈ 75 µM) in test [2], 5.7 µg/mL (≈ 23.2 µM) in test [3] and 17.6 µg/mL (≈ 71.7 µM) in test [4].
